What was measured:
Assay type in all cases: physicochemical
[1] = Determination of apparent density and compacted density (Stampf STAV 2003 volumeter); conditions: for Compacted density: weight/final volume after 2500 strokes; for Apparent density: weight/initial volume
Method: The determination of apparent and compacted densities was carried out with a Stampf STAV 2003 volumeter equipped with a 100-mL glass volumetric flask.
• (i) The flask was filled with a volume between 50 and 100 mL of test sample. • (ii) The volume occupied before the test (mL) was recorded. • (iii) 2500 strokes were performed with the volumeter. • (iv) The volume occupied after the test (mL) was recorded. • (v) The amount of analyzed sample (g) was weighed.
• (i) Apparent density (g/mL)=weight/initial volume • (ii) Compacted density (g/mL)=weight/final volume

[2] = DTA / thermogravimetric analysis (weight loss)
Method: The necessary amounts were carefully weighed for completing ¾ parts of the 70-μl Al2O3 crucible provided with a perforated lid that was hermetically sealed. Then, the crucible was placed into the furnace and the experiment started. The samples were heated from […] at a rate of 5° C./min under a N2 stream, the flow rate being 80 mL/min. Mass loss rate was calculated in relation to baseline by horizontal tangent plot. […] The start of endothermic peak temperature occurred at 437.6° K, but the first recorded weight loss began at 449° K from DTA analysis. Polymorph II placed in a furnace at 423° K started decomposition after 2 hours.

[3] = Stability of polymorph II (humidity, temperature, polymorphic transition)
Method: The start of endothermic peak temperature occurred at 437.6° K, but the first recorded weight loss began at 449° K from DTA analysis. Polymorph II placed in a furnace at 423° K started decomposition after 2 hours.

SMILES	Compacted density [1] [g/mL]	Compacted density ([1]; listed as polymorph II) [g/mL]	Apparent density [1] [g/mL]	Apparent density ([1]; listed as polymorph II) [g/mL]	Temperature at which first recorded weight loss began [2] [° K]	Stability in 1-month test ([3]; 1-month test at ambient temperature or humidity)	Stability after 1 day ([3]; 1 day at 25° C./80 RH)	Transition from II to I ([3]; during 1-month test)	Stability at high temperature compared with polymorph I ([3]; high temperatures (higher than 80° C.))	Stability against humidity ([3]; humidity)	Time to start of decomposition ([3]; placed in a furnace at 423° K) [h]	Stability at temperature ([3]; temperature below 423° K)	Compacted density ([1]; listed as Polymorph 1) [g/mL]	Compacted density ([1]; listed as polymorph I) [g/mL]	Apparent density ([1]; listed as Polymorph 1) [g/mL]	Apparent density ([1]; listed as polymorph I) [g/mL]
Clc1ccc([C@H](Cn2ccnc2)OCc2csc3c(Cl)cccc23)c(Cl)c1 [Polymorph II, arasertaconazole mononitrate]	0.53	0.53	0.39	0.39	449	remained stable	remained stable	No transition from II to I was observed	more stable at high temperature	stable	2	stable				
Clc1ccc([C@H](Cn2ccnc2)OCc2csc3c(Cl)cccc23)c(Cl)c1 [Polymorph I, arasertaconazole mononitrate]													1.08	1.08	0.78	0.78
